Values of other authors as cited in PMC4263960 (Pediatric blood & cancer, 2013).
Read-outs that look alike come from different tables or passages of the source.

Columns and labels:
Ewing sarcoma patients = details: cited from earlier work
[1] = tested on: recurrent solid tumors in children; details: cited from earlier work
pediatric solid tumors = details: cited from earlier work
[2] = tested on: pediatric preclinical xenograft models; details: cited from earlier work
[3] = tested on: neuroblastoma in children; details: 45 children with neuroblastoma; cited from earlier work

SMILES: CC[C@]1(O)C[C@H]2CN(CCc3c([nH]c4ccccc34)[C@@](C(=O)OC)(c3cc4c(cc3OC)N(C=O)[C@H]3[C@@](O)(C(=O)OC)[C@H](OC(C)=O)[C@]5(CC)C=CCN6CC[C@]43[C@@H]65)C2)C1 [vincristine]
- patients with a partial response (Ewing sarcoma patients): one of seven

SMILES: CCC1=C[C@@H]2CN(C1)Cc1c([nH]c3ccccc13)[C@@](C(=O)OC)(c1cc3c(cc1OC)N(C)[C@H]1[C@@](O)(C(=O)OC)[C@H](OC(C)=O)[C@]4(CC)C=CCN5CC[C@]31[C@@H]54)C2 [vinorelbine]
- patients with objective responses ([1]; astrocytoma): 1 of 4
- patients with objective responses ([1]; eight children with neuroblastoma): no responses
- patients with objective responses ([1]; medulloblastoma): 1 of 2
- patients with objective responses ([1]; nine patients with non-rhabdomyosarcoma soft tissue sarcoma): no responses
- patients with objective responses ([1]; rhabdomyosarcoma): 4 of 11
- patients with objective responses (pediatric solid tumors; Ewing sarcomas): one of seven
- patients with objective responses (pediatric solid tumors; osteosarcomas): one of five
- patients with objective responses (pediatric solid tumors; rhabdomyosarcoma): 6 of 12

SMILES: COc1ccc(S(=O)(=O)Nc2cccnc2Nc2ccc(O)cc2)cc1 [ABT-751]
- preclinical models with regression ([2]; all models): 4 of 25
- preclinical models with regression ([2]; neuroblastoma models refractory to vincristine and paclitaxel): 2 of 4
- objective responses [3]: absence of objective responses
